Data reported in the supplement of paper PMC10307832.

What was measured:
Assay in all cases: relative viability (nuclei count vs DMSO), 5 days (fraction); higher = more cells survive
Trametinib + Vorinostat = compound: CC(=O)Nc1cccc(-n2c(=O)n(C3CC3)c(=O)c3c(Nc4ccc(I)cc4F)n(C)c(=O)c(C)c32)c1 [Trametinib] + O=C(CCCCCCC(=O)Nc1ccccc1)NO [Vorinostat] (partner 1 µM)
Outline: (§1)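 Nuclei were stained with Hoechst during a one-step fixation (final 0.05% Triton X-100, 1% formaldehyde, 1 ug/ml Hoechst) carried out 5 days after dosing, then counted on 4× images. The cells, lung cancer lines in 1536-well plates, had been dosed by pin tool the day after seeding with one drug alone or a fixed anchor-drug dose plus five library-drug doses (not always all listed) in √10 steps. Relative viability is the nuclei count in treated wells divided by that in vehicle wells, and each value is the median of duplicate plates.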

Trametinib + Palbociclib = compound: CC(=O)Nc1cccc(-n2c(=O)n(C3CC3)c(=O)c3c(Nc4ccc(I)cc4F)n(C)c(=O)c(C)c32)c1 [Trametinib] + CC(=O)c1c(C)c2cnc(Nc3ccc(N4CCNCC4)cn3)nc2n(C2CCCC2)c1=O [Palbociclib] (partner 0.5 µM)
Outline: as §1

Trametinib + Dasatinib = compound: CC(=O)Nc1cccc(-n2c(=O)n(C3CC3)c(=O)c3c(Nc4ccc(I)cc4F)n(C)c(=O)c(C)c32)c1 [Trametinib] + Cc1nc(Nc2ncc(C(=O)Nc3c(C)cccc3Cl)s2)cc(N2CCN(CCO)CC2)n1 [Dasatinib] (partner 0.075 µM)
Outline: as §1

Trametinib + Decitabine = compound: CC(=O)Nc1cccc(-n2c(=O)n(C3CC3)c(=O)c3c(Nc4ccc(I)cc4F)n(C)c(=O)c(C)c32)c1 [Trametinib] + Nc1ncn([C@H]2C[C@H](O)[C@@H](CO)O2)c(=O)n1 [Decitabine] (partner 2 µM)
Outline: as §1

Cell Line	relative viability (Trametinib + Vorinostat; first compound 0.0025 µM)	relative viability (Trametinib + Vorinostat; first compound 0.007906 µM)	relative viability (Trametinib + Vorinostat; first compound 0.025 µM)	relative viability (Trametinib + Vorinostat; first compound 0.07906 µM)	relative viability (Trametinib + Vorinostat; first compound 0.25 µM)	relative viability (Trametinib + Palbociclib; first compound 0.0025 µM)	relative viability (Trametinib + Palbociclib; first compound 0.007906 µM)	relative viability (Trametinib + Palbociclib; first compound 0.025 µM)	relative viability (Trametinib + Palbociclib; first compound 0.07906 µM)	relative viability (Trametinib + Palbociclib; first compound 0.25 µM)	relative viability (Trametinib + Dasatinib; first compound 0.0025 µM)	relative viability (Trametinib + Dasatinib; first compound 0.007906 µM)	relative viability (Trametinib + Dasatinib; first compound 0.025 µM)	relative viability (Trametinib + Dasatinib; first compound 0.07906 µM)	relative viability (Trametinib + Dasatinib; first compound 0.25 µM)	relative viability (Trametinib + Decitabine; first compound 0.0025 µM)	relative viability (Trametinib + Decitabine; first compound 0.007906 µM)	relative viability (Trametinib + Decitabine; first compound 0.025 µM)	relative viability (Trametinib + Decitabine; first compound 0.07906 µM)	relative viability (Trametinib + Decitabine; first compound 0.25 µM)
PC-14	0.781	0.599	0.535	0.438	0.0917	0.46	0.306	0.295	0.214	0.102	0.265	0.234	0.266	0.13	0.0632	0.229	0.184	0.286	0.145	0.125
RERF-LC-KJ	0.549	0.621	0.6	0.569	0.472	1.03	0.857	0.914	0.848	0.66	0.7	0.741	0.794	0.731	0.554	0.683	0.68	0.609	0.695	0.475
SK-LU-1	0.753	0.748	0.657	0.52	0.381	0.416	0.319	0.307	0.296	0.259	0.192	0.183	0.148	0.15	0.159	0.585	0.632	0.473	0.431	0.455
SK-MES-1	0.994	0.894	0.744	0.511	0.337	0.358	0.357	0.319	0.354	0.26	0.324	0.313	0.208	0.171	0.156	0.381	0.304	0.341	0.247	0.273
SW 900	0.44	0.545	0.439	0.456	0.138	0.56	0.49	0.483	0.457	0.383	0.559	0.652	0.46	0.57	0.238	0.396	0.335	0.388	0.491	0.39
SW 1573	0.755	0.663	0.437	0.491	0.278	0.36	0.301	0.298	0.158	0.17	0.513	0.389	0.371	0.323	0.266	0.393	0.37	0.317	0.308	0.181
